From patent US12312621B2, “Reprogramming urokinase into an antibody-recruiting anticancer agent” (YALE UNIVERSITY, priority 2011, dated 2025)

Assay: Storage stability of stock solution in water
Assay type: physicochemical
Description: Synthesis of guanidinium 1 Into a flask were added crude peptide 1v (0.120 mmol, 1 equiv), and a mixture of TFA, TiPS, and water (38:1:1, 2 mL, 0.06 M, producing a homogeneous solution). The mixture was stirred in the dark (1.5 h) and diluted with toluene (3 mL). Volatiles were removed under reduced pressure (2×toluene azeotrope). The crude mixture was dissolved in water (2 mL) and washed with EtOAc (2×2 mL). The aqueous phase was purified by semi-preparative RP-HPLC (C18 column, water+0.1% TFA with 15-35% MeCN over 30 min, product isomers elute at 14.5 and 15.4 min) to yield pure guanidinium 1 (58 mg, 0.049 mmol, 41% yield) as a mixture (approximately 1:1) of regioisomers at fluorescein and as a yellow solid. The regioisomeric ratio was measured by ^1H NMR. ^1H NMR signals were assigned by ^1H-^1H COSY.
Synthesis of guanidinium 2 Into a flask were added crude peptide 2g (0.150 mmol, 1 equiv), and a mixture of TFA, TiPS, and water (38:1:1, 2 mL, 0.07 M). The mixture was stirred (1.5 h) and diluted with toluene (3 mL). Volatiles were removed under reduced pressure (2×toluene azeotrope). The crude mixture was dissolved in water (2 mL) and washed with EtOAc (2×2 mL). […]

For `N=C(N)NCCC[C@H](NC(=O)CNC(=O)[C@@H](N)CCC(=O)NCCCOCCOCCOCCCNc1ccc([N+](=O)[O-])cc1[N+](=O)[O-])C(=O)CCl` [compound 2], the “stability of stock solution” value was “stable for at least several months”.
